# Measured values reported in patent US11957671B2, “Benzodioxane modulators of leukotriene A4 hydrolase (LTA4H) for prevention and treatment of aging-associated diseases” (Alkahest, Inc., priority 2021, dated 2024).
# Test system: synthesis of LTB4 in human whole blood
# Test: human whole blood (HWB) assay, LTB4 production inhibition
# Assay type: cell-based
# Conditions: calcimycin 20 μM
# Method: The compounds of the invention are additionally tested in a human whole blood (HWB) assay to determine their ability to inhibit the synthesis of LTB4 in a cellular system. Compounds are combined with heparinized human whole blood and incubated for 15 minutes at 37° C. Calcimycin (20 μM final, prepared in phosphate-buffered saline, pH 7.4) is then added and the mixture is incubated for another 30 minutes at 37° C. The samples are centrifuged for 5 min at low speed (1500×g) and the plasma layer is removed. Plasma LTB4 concentrations are then measured using an antibody-based homogenous time-resolved fluorescence method (CisBio, Bedford, Mass.). In general, the preferred potency range (IC50) of compounds in the HWB assay is between 10 nM to 10 μM, the more preferred potency range is 10 nM to 1 μM, and the most preferred potency range is 10 nM to 100 nM.
row,SMILES,IC50 [nM]
1,"O[C@H]1CCN(Cc2ccc(C3COc4ccccc4O3)cc2)C1 (stereo partly drawn) [Example 9, (3S)-1-[4-(2,3-dihydro-1,4-benzodioxin-2-yl)benzyl]pyrrolidin-3-ol]",285
2,"NC(=O)NC1CCN(Cc2ccc([C@H]3COc4cccnc4O3)cc2)CC1 [Example 187, 1-(1-{4-[(3S)-2,3-dihydro[1,4]dioxino[2,3-b]pyridin-3-yl]benzyl}piperidin-4-yl)urea]",177
3,"FC1CCN(Cc2ccc([C@H]3COc4cccnc4O3)cc2)CC1 [Example 155, (3S)-3-{4-[(4-fluoropiperidin-1-yl)methyl]phenyl}-2,3-dihydro[1,4]dioxino[2,3-b]pyridine]",95.4
4,"OC1CCN(Cc2ccc([C@H]3COc4cccnc4O3)cc2)CC1 [Example 186, 1-{4-[(3S)-2,3-dihydro[1,4]dioxino[2,3-b]pyridin-3-yl]benzyl}piperidin-4-ol]",36.5
5,"O=C(O)CCC1CCN(Cc2ccc([C@H]3COc4ccccc4O3)cc2)CC1 [Example 134, 3-(1-{4-[(2S)-2,3-dihydro-1,4-benzodioxin-2-yl]benzyl}piperidin-4-yl)propanoic acid]",94.6
6,"c1cnc2c(c1)OCC(c1ccc(CN3CCOCC3)cc1)O2 (racemic) [Example 18, 3-[4-(morpholin-4-ylmethyl)phenyl]-2,3-dihydro[1,4]dioxino[2,3-b]pyridine]",176
7,"CC1CCN(Cc2ccc([C@H]3COc4cccnc4O3)cc2)CC1 [Example 137, (3S)-3-{4-[(4-methylpiperidin-1-yl)methyl]phenyl}-2,3-dihydro[1,4]dioxino[2,3-b]pyridine]",27.6
8,"NC(=O)NC1CCN(Cc2ccc(C3COc4ccccc4O3)cc2)CC1 (racemic) [Example 53, 1-{1-[4-(2,3-dihydro-1,4-benzodioxin-2-yl)benzyl]piperidin-4-yl}urea]",155
9,"c1cnc2c(c1)OC[C@H](c1ccc(CN3CCOCC3)cc1)O2 [Example 204, (3S)-3-[4-(morpholin-4-ylmethyl)phenyl]-2,3-dihydro[1,4]dioxino[2,3-b]pyridine]",95
10,"CCN(CC)Cc1ccc([C@H]2COc3cccnc3O2)cc1 [Example 141, N-{4-[(3S)-2,3-dihydro[1,4]dioxino[2,3-b]pyridin-3-yl]benzyl}-N-ethylanamine]",32.8
11,"CN(Cc1ccc([C@H]2COc3ccccc3O2)cc1)C(C)(C)C [Example 81, N-{4-[(2S)-2,3-dihydro-1,4-benzodioxin-2-yl]benzyl}-N,2-dimethylpropan-2-amine]",80.7
12,"O=C(NCCO)C1CCN(Cc2ccc(C3COc4ccccc4O3)cc2)CC1 (racemic) [Example 52, 1-[4-(2,3-dihydro-1,4-benzodioxin-2-yl)benzyl]-N-(2-hydroxyethyl)piperidine-4-carboxamide]",145
13,"c1ccc2c(c1)OCC(c1ccc(CN3CCCC3)cc1)O2 (stereo not shown) [Example 200, 1-[4-(2,3-dihydro-1,4-benzodioxin-2-yl)benzyl]pyrrolidine]",83
14,"CC(=O)NC1CCN(Cc2ccc([C@H]3COc4ccccc4O3)cc2)CC1 [Example 178, N-(1-(4-[(2S)-2,3-dihydro-1,4-benzodioxin-2-yl]benzyl}piperidin-4-yl)acetamide]",160
15,"O=C(O)c1ccc(CC2CCN(Cc3ccc([C@H]4COc5cccnc5O4)cc3)CC2)cc1 [Example 234, 4-[(1-{4-[(3S)-2,3-dihydro[1,4]dioxino[2,3-b]pyridin-3-yl]benzyl}piperidin-4-yl)methyl]benzoic acid]",94.8
16,"CN(CCc1ccccn1)Cc1ccc([C@H]2COc3cccnc3O2)cc1 [Example 138, N-{4-[(3S)-2,3-dihydro[1,4]dioxino[2,3-b]pyridin-3-yl]benzyl}-N-methyl-2-(pyridin-2-yl)ethanamine]",76
17,"CS(=O)(=O)NC1CCN(Cc2ccc([C@H]3COc4cccnc4O3)cc2)CC1 [Example 190, N-(1-{4-[(3S)-2,3-dihydro[1,4]dioxino[2,3-b]pyridin-3-yl]benzyl}piperidin-4-yl)methanesulfonamide]",26
18,"NC(=O)CN1CCCC12CCN(Cc1ccc([C@H]3COc4ccccc4O3)cc1)C2 (stereo partly drawn) [Example 123, 2-(7-{4-[(2S)-2,3-dihydro-1,4-benzodioxin-2-yl]benzyl}-1,7-diazaspiro[4.4]non-1-yl)acetamide]",312
19,"O=C1NCCCC12CCN(Cc1ccc([C@H]3COc4ccccc4O3)cc1)CC2 [Example 116, 9-{4-[(2S)-2,3-dihydro-1,4-benzodioxin-2-yl]benzyl}-2,9-diazaspiro[5.5]undecan-1-one]",310
20,"CC(=O)NC1CCN(Cc2ccc([C@H]3COc4cccnc4O3)cc2)CC1 [Example 160, N-(1-{4-[(3S)-2,3-dihydro[1,4]dioxino[2,3-b]pyridin-3-yl)benzyl}piperidin-4-yl)acetamide]",28

row,SMILES,IC50 [nM]
1,"c1cnc2c(c1)OC[C@H](c1ccc(CNC3CCC3)cc1)O2 [Example 173, N-{4-[(3S)-2,3-dihydro[1,4]dioxino[2,3-b]pyridin-3-yl]benzyl}cyclobutanamine]",72.8
2,"O=C(C1CCN(Cc2ccc(C3COc4ccccc4O3)cc2)CC1)N1CCOCC1 (racemic) [Example 37, {1-[4-(2,3-dihydro-1,4-benzodioxin-2-yl)benzyl]piperidin-4-yl}(morpholin-4-yl)methanone]",324
3,"CC(=O)N(C)C1CCN(Cc2ccc([C@H]3COc4ccccc4O3)cc2)C1 (stereo partly drawn) [Example 83, N-(1-{4-[(2S)-2,3-dihydro-1,4-benzodioxin-2-yl]benzyl}pyrrolidin-3-yl)-N-methylacetamide]",33.5
4,"CC(C)(C(=O)O)C1CCN(Cc2ccc([C@H]3COc4ccccc4O3)cc2)CC1 [Example 229, 2-(1-{4-[(2S)-2,3-dihydro-1,4-benzodioxin-2-yl]benzyl}piperidin-4-yl)-2-methylpropanoic acid]",290
5,"O=C(O)[C@@H]1CCN(Cc2ccc([C@H]3COc4ccccc4O3)cc2)C1 [Example 214, (3R)-1-{4-[(2S)-2,3-dihydro-1,4-benzodioxin-2-yl]benzyl}pyrrolidine-3-carboxylic acid]",169
6,"O=C1NCCC12CCN(Cc1ccc([C@H]3COc4cccnc4O3)cc1)CC2 [Example 125, 8-{4-[(3S)-2,3-dihydro[1,4]dioxino[2,3-b]pyridin-3-yl]benzyl}-2,8-diazaspiro[4.5]decan-1-one]",39.2
7,"CC(=O)N1CCCC12CCN(Cc1ccc([C@H]3COc4ccccc4O3)cc1)C2 (stereo partly drawn) [Example 118, 1-(7-{4-[(2S)-2,3-dihydro-1,4-benzodioxin-2-yl]benzyl}-1,7-diazaspiro[4.4]non-1-yl)ethanone]",256
8,"c1cnc2c(c1)OC[C@H](c1ccc(CN3CCCC3)cc1)O2 [Example 126, (3S)-3-[4-(pyrrolidin-1-ylmethyl)phenyl]-2,3-dihydro[1,4]dioxino[2,3-b]pyridine]",32.3
9,"OC[C@H]1CCCC[C@H]1NCc1ccc([C@H]2COc3ccccc3O2)cc1 [Example 87, [(1S,2R)-2-({4-[(2S)-2,3-dihydro-1,4-benzodioxin-2-yl]benzyl)amino)cyclohexyl] methanol]",268
10,CCCCN(Cc1ccc(C(=O)O)cc1)Cc1ccc([C@H]2COc3ccccc3O2)cc1 [Example 237],94.5
11,"COCC(=O)NC1CCN(Cc2ccc([C@H]3COc4ccccc4O3)cc2)CC1 [Example 219, N-(1-{4-[(2S)-2,3-dihydro-1,4-benzodioxin-2-yl]benzyl}piperidin-4-yl)-2-methoxyacetamide]",149
12,"COC1CCCN(Cc2ccc([C@H]3COc4cccnc4O3)cc2)C1 (stereo partly drawn) [Example 158, (3S)-3-{4-[(3-methoxypiperidin-1-yl)methyl]phenyl}-2,3-dihydro[1,4]dioxino[2,3-b]pyridine]",27.5
13,"O=C1CCCN1CC1CCCN(Cc2ccc(C3COc4ccccc4O3)cc2)C1 (racemic) [Example 10, 1-({1-[4-(2,3-dihydro-1,4-benzodioxin-2-yl)benzyl]piperidin-3-yl}methyl)pyrrolidin-2-one]",352
14,"CC(=O)N1CCN(Cc2ccc([C@H]3COc4cccnc4O3)cc2)CC1 [Example 185, 1-(4-{4-[(3S)-2,3-dihydro[1,4]dioxino[2,3-b]pyridin-3-yl]benzyl}piperazin-1-yl)ethanone]",92.3
15,"O=C(O)C[C@@H]1CCCN(Cc2ccc([C@H]3COc4ccccc4O3)cc2)C1 [Example 183, [(3S)-1-{4-[(2S)-2,3-dihydro-1,4-benzodioxin-2-yl]benzyl)piperidin-3-yl]acetic acid]",151
16,"CN(Cc1ccc([C@H]2COc3cccnc3O2)cc1)C1CCCC1 [Example 142, N-{4-[(3S)-2,3-dihydro[1,4]dioxino[2,3-b]pyridin-3-yl]benzyl}-N-methylcyclopentanamine]",24.4
17,"O=C(O)C1CCN(Cc2ccc([C@H]3COc4ccccc4O3)cc2)C1 (stereo partly drawn) [Example 61, 1-{4-[(2S)-2,3-dihydro-1,4-benzodioxin-2-yl]benzyl}pyrrolidine-3-carboxylic acid]",250
18,"CNC(=O)C1CCN(Cc2ccc(C3COc4ccccc4O3)cc2)CC1 (racemic) [Example 25, 1-[4-(2,3-dihydro-1,4-benzodioxin-2-yl)benzyl]-N-methylpiperidine-4-carboxamide]",294
19,"CC1CCCCN1Cc1ccc([C@H]2COc3ccccc3O2)cc1 (stereo partly drawn) [Example 68, 1-{4-[(2S)-2,3-dihydro-1,4-benzodioxin-2-yl]benzyl}-2-methylpiperidine]",80.7
20,"O=C(O)CCCC1CCN(Cc2ccc(C3COc4ccccc4O3)cc2)CC1 (racemic) [Example 26, 4-{1-[4-(2,3-dihydro-1,4-benzodioxin-2-yl)benzyl]piperidin-4-yl}butanoic acid]",308
